Our source for the MIC and Activity values is ChEMBL document CHEMBL1255306, “Potential basis for amphotericin B resistance in Aspergillus terreus” (2008).

Converted amounts (≈) assume the structure as drawn. The source made the active and inactive calls.

Assay [1] has as its system Aspergillus terreus. Nature of the assay: Antimicrobial activity against Aspergillus terreus conidia by CLSI M38-A broth microdilution method. The format is functional. (In general: Dilution methods test growth across graded concentrations, often in twofold steps.)
Assay [2] relates to Aspergillus terreus. Nature of the assay: Antimicrobial activity against Aspergillus terreus protoplast by CLSI M38-A broth microdilution method. The class given is functional.
Assay [3] deals with Aspergillus terreus. Put plainly: Antimicrobial activity against AMB-resistant Aspergillus terreus assessed as high malonaldehyde activity at 5 ug/ml after 8 hrs by thiobarbituric acid test. The format is functional, organism-based.
The test system of assay [4] is Aspergillus fumigatus. Put plainly: Antimicrobial activity against […] Aspergillus fumigatus assessed as high malonaldehyde activity at 5 ug/ml after 8 hrs by thiobarbituric acid test. The class given is functional, organism-based.
For assay [5], the system named is Aspergillus terreus. Nature of the assay: Antimicrobial activity against AMB-resistant Aspergillus terreus assessed as high malonaldehyde activity at 10 ug/ml after 8 hrs by thiobarbituric acid test. The format is functional, organism-based.
The subject of assay [6] is Aspergillus fumigatus. Put plainly: Antimicrobial activity against […] Aspergillus fumigatus assessed as high malonaldehyde activity at 10 ug/ml after 8 hrs by thiobarbituric acid test. The class given is functional, organism-based.
Assay [7] concerns Aspergillus fumigatus. Put plainly: Antimicrobial activity against […] Aspergillus fumigatus assessed as catalase activity after 24 to 48 hrs. The class given is functional, organism-based.
For assay [8], the system named is Aspergillus terreus. Put plainly: Antimicrobial activity against AMB-resistant Aspergillus terreus assessed as catalase activity after 24 to 48 hrs. The class given is functional, organism-based.

By MIC is commonly meant the smallest concentration in the dilution series that meets the test's criterion for growth inhibition. A low value points to a more susceptible organism. Take `C[C@@H]1[C@H](O)[C@@H](C)/C=C/C=C/C=C/C=C/C=C/C=C/C=C/[C@H](O[C@@H]2O[C@H](C)[C@@H](O)[C@H](N)[C@@H]2O)C[C@@H]2O[C@](O)(C[C@@H](O)C[C@@H](O)[C@H](O)CC[C@@H](O)C[C@@H](O)CC(=O)O[C@H]1C)C[C@H](O)[C@H]2C(=O)O` [AMPHOTERICIN B]: the MIC was determined as 1.7 µg/mL (≈ 1.84 µM) in assay [1] and 1.41 µg/mL (≈ 1.53 µM) in assay [2]. For the same compound, the result in assay [3], in assay [4], in assay [5], in assay [6] and in assay [8] was Active. Moreover, the outcome in assay [7] was inactive.
